Here are results for seven molecules from ChEMBL document CHEMBL1201862, “PubChem BioAssay data set” (2004).

Some test systems named below: 786-0; A498; ACHN; BT-549; CAKI-1; DU-145; HCT-116; Hs-578T; Malme-3M; NCI-H226; OVCAR-3; OVCAR-5; OVCAR-8; PC-3; RPMI-8226; RXF 393; SF-295; SF-539; UACC-257; UO-31.
Common to all, as to assay: NCI-60 cell line screen, 48 h

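Protocol summary: plate cells (96-well), add compound at 5 concentrations, incubate 48 h, interpolate endpoints linearly. Abbreviation: GI50, concentration required for 50% inhibition of growth.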 Calls of active or inactive are those of the source. No stated cut-off is given here; in the data, active = GI50 up to about 1.1 µM and inactive = higher. Bounds are passed on as bounds.

For `COc1ccc2[nH]c(C(=O)N3CC(CCl)c4ccc([N+](=O)[O-])cc43)cc2c1` (stereo not drawn), the GI50 in the assay with 786-0, in the assay on A498, with ACHN, in the assay on BT-549, in the assay with CAKI-1 and in the assay on DU-145 was > 100 µM (inactive) each time. Further, the GI50 with HCT-116 was > 100 µM (inactive); in the assay with Hs-578T, 37 µM (inactive); with Malme-3M, > 100 µM (inactive); in the assay on NCI-H226, 33.8 µM (inactive); with OVCAR-3, > 100 µM (inactive); in the assay with OVCAR-5, > 100 µM (inactive). Besides, the GI50 with OVCAR-8 was > 80.9 µM (inactive); in the assay with PC-3, > 100 µM (inactive); in the assay with RPMI-8226, > 100 µM (inactive); in the assay on RXF 393, > 65.5 µM (inactive); in the assay with SF-295, > 100 µM (inactive); in the assay on SF-539, > 90.4 µM (inactive). The GI50 in the assay on UACC-257 and in the assay with UO-31 was > 100 µM (inactive) throughout.

In the case of `COc1cc2c(cc1OCCCN1CCN(C)CC1)N=C[C@@H]1CCCN1C2=O`, the GI50 in the assay on 786-0 is 3.4 µM (inactive); with A498 it was 2.34 µM (inactive); in the assay on ACHN it was 2.17 µM (inactive); in the assay on BT-549, 1.77 µM (inactive); in the assay with CAKI-1, 1.25 µM (inactive); in the assay on DU-145 it was 2.25 µM (inactive). In addition, the GI50 is 2.7 µM (inactive) in the assay with HCT-116; 5.12 µM (inactive) in the assay with Hs-578T; 2.21 µM (inactive) in the assay with Malme-3M; 1.93 µM (inactive) with NCI-H226; 2.06 µM (inactive) in the assay on OVCAR-3; 2.27 µM (inactive) in the assay on OVCAR-5. For the same molecule, the GI50 is 2.58 µM (inactive) with OVCAR-8; 2.67 µM (inactive) in the assay with PC-3; 1.04 µM (active) with RPMI-8226; 1.87 µM (inactive) in the assay with RXF 393; 2 µM (inactive) with SF-295; 2.19 µM (inactive) in the assay on SF-539. For the same molecule, the GI50 with UACC-257 is 2.5 µM (inactive); in the assay on UO-31 it was 2.14 µM (inactive).

As to `CC(C)/C(Cl)=N/OC(NC(=O)Nc1ccc(Cl)c(Cl)c1)(C(F)(F)F)C(F)(F)F`, the GI50 in the assay on 786-0 is 8.77 µM (inactive); in the assay on A498, 18.2 µM (inactive); with ACHN, 12.2 µM (inactive); in the assay on BT-549, 11.5 µM (inactive); with CAKI-1 it was 2.16 µM (inactive); in the assay on DU-145, 16.7 µM (inactive). Further, the GI50 in the assay with HCT-116 is 7.36 µM (inactive); with Hs-578T, 28.6 µM (inactive); with Malme-3M, 2.37 µM (inactive); in the assay on NCI-H226 it was 19.9 µM (inactive); with OVCAR-3, 5.9 µM (inactive); in the assay on OVCAR-5 it was 19.7 µM (inactive). Moreover, the GI50 was 17.7 µM (inactive) with OVCAR-8; 13.6 µM (inactive) in the assay on PC-3; 1.72 µM (inactive) with RPMI-8226; 3.42 µM (inactive) with RXF 393; 19.8 µM (inactive) with SF-295; 17.4 µM (inactive) in the assay with SF-539. The GI50 in the assay on UACC-257 is 13.2 µM (inactive); with UO-31 it was 17.3 µM (inactive).

Take `O=[N+]([O-])c1ccc(-n2nc3ccc4c(no[n+]4[O-])c3[n+]2[O-])c([N+](=O)[O-])c1`: the GI50 was 2.68 µM (inactive) with 786-0; 5.45 µM (inactive) with A498; 2.45 µM (inactive) in the assay with ACHN; 2.67 µM (inactive) with BT-549; 2.42 µM (inactive) in the assay with CAKI-1; 5.56 µM (inactive) with DU-145. Further, the GI50 in the assay with HCT-116 was 1.91 µM (inactive); in the assay on Hs-578T it was 2.81 µM (inactive); in the assay on Malme-3M it was 2.45 µM (inactive); in the assay with NCI-H226, 8.24 µM (inactive); with OVCAR-3 it was 2.47 µM (inactive); in the assay on OVCAR-5 it was 6.41 µM (inactive). Moreover, the GI50 in the assay with OVCAR-8 is 2.4 µM (inactive); in the assay on PC-3, 8 µM (inactive); in the assay with RPMI-8226, 2.29 µM (inactive); with RXF 393, 3.27 µM (inactive); with SF-295, 4.53 µM (inactive); in the assay on SF-539 it was 6.15 µM (inactive). In addition, the GI50 is 1.75 µM (inactive) with UACC-257 and 5.27 µM (inactive) in the assay with UO-31.

On to `O=S(=O)(c1cccc(C(F)(F)F)c1)N1c2ccccc2-n2cccc2C1c1cccnc1` (stereo not drawn), for which the GI50 is > 40.6 µM (inactive) in the assay with 786-0; 23.3 µM (inactive) in the assay with A498; > 46.5 µM (inactive) in the assay with ACHN; 9.29 µM (inactive) in the assay on BT-549; > 100 µM (inactive) in the assay with CAKI-1; > 39.7 µM (inactive) in the assay on DU-145. Also, the GI50 in the assay on HCT-116 was 18.8 µM (inactive); in the assay on Hs-578T, > 47 µM (inactive); in the assay on Malme-3M, 21.4 µM (inactive); with NCI-H226, > 28.1 µM (inactive); in the assay on OVCAR-3, > 35.8 µM (inactive); with OVCAR-5 it was > 50.5 µM (inactive). In addition, the GI50 in the assay with OVCAR-8 is 44.3 µM (inactive); with PC-3, 10.7 µM (inactive); in the assay on RPMI-8226, 6.17 µM (inactive); in the assay on RXF 393 it was > 38.7 µM (inactive); with SF-295 it was 71.8 µM (inactive); in the assay on SF-539, 28 µM (inactive). Besides, the GI50 in the assay on UACC-257 is > 36.4 µM (inactive); in the assay on UO-31 it was 17.7 µM (inactive).

`COc1ccc(C2C=C(c3ccc4c(c3)OCO4)Oc3c2c(=O)oc2ccccc32)cc1OC` (stereo not drawn): the GI50 is 0.43 µM (active) with 786-0; 0.502 µM (active) in the assay on A498; 0.627 µM (active) in the assay on ACHN; 3.18 µM (inactive) in the assay on BT-549; 0.425 µM (active) with CAKI-1; 0.417 µM (active) in the assay on DU-145. Moreover, the GI50 with HCT-116 was 0.482 µM (active); with Hs-578T, 0.513 µM (active); in the assay on Malme-3M, 0.366 µM (active); in the assay on NCI-H226, 0.258 µM (active); with OVCAR-3, 0.475 µM (active); in the assay with OVCAR-5, 0.556 µM (active). Besides, the GI50 with OVCAR-8 was 0.839 µM (active); in the assay on PC-3, 0.429 µM (active); with RPMI-8226, 0.254 µM (active); with RXF 393, 0.252 µM (active); with SF-295, 0.279 µM (active); in the assay on SF-539 it was 0.308 µM (active). The GI50 with UO-31 is 0.527 µM (active).

As to `Cc1cc(O)c2c(=O)c3ccccc3[nH]c2c1`, the GI50 is 15.6 µM (inactive) in the assay with 786-0; 32.8 µM (inactive) in the assay with A498; 21.5 µM (inactive) in the assay with ACHN; 24.8 µM (inactive) in the assay with BT-549; 11.8 µM (inactive) in the assay on CAKI-1; 35.2 µM (inactive) with DU-145. In addition, the GI50 with HCT-116 is 20.3 µM (inactive); with Hs-578T, 45.3 µM (inactive); in the assay with Malme-3M, 32.7 µM (inactive); in the assay with NCI-H226, 23.1 µM (inactive); in the assay with OVCAR-3, 29 µM (inactive); with OVCAR-5, 18.9 µM (inactive). Further, the GI50 in the assay with OVCAR-8 is 23 µM (inactive); in the assay with PC-3, 19.3 µM (inactive); in the assay with RPMI-8226, 11.8 µM (inactive); with RXF 393, 27 µM (inactive); in the assay with SF-295 it was 20 µM (inactive); in the assay on SF-539, 15.7 µM (inactive). Moreover, in the assay on UACC-257, the GI50 was 20.1 µM (inactive).
